Assay results: article PMC8122671, “New Succinimides with Potent Anticancer Activity: Synthesis, Activation of Stress Signaling Pathways and Characterization of Apoptosis in Leukemia and Cervical Cancer Cells” (International Journal of Molecular Sciences, 2021)
Read-outs that look alike come from different tables or passages of the source.

Legend:
[1] = system: K562 (myelogenous leukemia cell line); experiment: MTT cytotoxicity assay, K562; type: cell-based, human; conditions: Homo sapiens, K562, 48 h, read-out: IC50 K562
Protocol: (§1) The cytotoxicity of new derivatives of dicarboximides was tested in HeLa (cervix carcinoma cell line), K562 (myelogenous leukemia cell line), MOLT-4 (Human T-Lymphoid Cell Line), and HUVEC (normal endothelial) cells. First, the viability of cells was determined after 48 h incubation with the screened compounds used at the concentration of 100 μM (data not shown). […] Cells exposed to 1% DMSO (as vehicle) served as the control with 100% survival.
(§2) Human umbilical vein endothelial cells (Life Technologies, Carlsbad, CA, USA) were cultured (according to the manufacturer’s instructions) in Medium 200 containing low serum growth supplement; 1 × 10^4 cells were seeded on each well on a 96-well plate (Nunc, Roskilde, Denmark). The HeLa (human cervix carcinoma), K562, and MOLT-4 (leukemia) cells were cultured in RPMI 1640 medium supplemented with antibiotics and 10% fetal calf serum in a 5% CO2–95% air atmosphere; 7 × 10^3 cells were seeded on each well on a 96-well plate (Nunc). Twenty-four hours later, cells were exposed to the test compounds for additional 48 hours. Stock solutions of test compounds were freshly prepared in DMSO. The final concentrations of the compounds tested in the cell cultures were 2 × 10^−1, 1 × 10^−1, 5 × 10^−2, 1 × 10^−2, 1 × 10^−3, and 1 × 10^−4 mM. The concentration of DMSO in the cell culture medium was 1%. The values of IC50 (the concentration of test compound required to reduce the cell survival fraction to 50% of the control) were calculated from dose–response curves and used as a measure of cellular sensitivity to a given treatment. The cytotoxicity of all compounds was determined by the MTT [3-(4,5-dimethylthiazol-2-yl)-2,5-diphenyltetrazolium bromide; Sigma, St. Louis, MO, USA] assay. Briefly, after 24 or 48 h of incubation with drugs, the cells were treated with the MTT reagent, and incubation was continued for 2 h. MTT-formazan crystals were dissolved in 20% SDS and 50% DMF at pH 4.7, and absorbance was read at 570 and 650 nm on a microplate reader FLUOstar Omega (BMG Labtech, Offenburg, Germany). As a control (100% viability), we used cells grown in the presence of the vehicle (1% DMSO) only.

[2] = system: HUVEC (normal endothelial) cells; experiment: MTT cytotoxicity assay, HUVEC; type: cell-based; conditions: Homo sapiens, read-out: IC50 HUVEC
Protocol: as §1, §2

[3] = system: HeLa (human cervix carcinoma) cells; experiment: MTT cytotoxicity assay, HeLa; type: cell-based; conditions: read-out: IC50 HeLa
Protocol: as §1, §2

[4] = system: MOLT-4 (Human T-Lymphoid Cell Line); experiment: MTT cytotoxicity assay, MOLT-4; type: cell-based; conditions: read-out: IC50 MOLT-4
Protocol: as §1, §2

[5] = Lipophilicity (logkw) by reversed-phase chromatography (RP-HPLC); type: physicochemical; conditions: for logkw (Experimental): extrapolated to pure water; for logkw (Table S2): intercept of logk vs methanol fraction, n = 4
Source text: The main goal of the synthetic part was the synthesis of new derivatives of dicarboximides with decreased lipophilicity in comparison to the lead compounds, i.e., Ia–Ie and II. To reduce the lipophilicity of the new dicarboximides, a hydroxyalkyl chain connected with an aliphatic amine was introduced to the imides (Scheme 1). At the same time, the imide scaffold in derivatives from group 2 and 3 was the same as in lead compounds Ia–Ie and II, respectively (Figure 1). The structure of the imide was changed in derivatives 1b–1g. The lipophilicity of new derivatives was calculated using the Osiris Property Explorer program. For some compounds, lipophilicity was determined experimentally by a reversed-phase chromatography (detailed description is given in Materials and Methods and in the Supplementary Data, Table S2). Table 1 summarizes the calculated (clogP) and experimental (logkw) parameters of the lipophilicity of new derivatives.
The reversed-phase high-performance liquid chromatography (RP-HPLC) analysis was performed on a Merck–Hitachi LaChrom Elite System (Merck, Darmstadt, Germany) with diode array detector L-2455, thermostat L-2300, pump L-2130, and autosampler L-2200 and with the Waters XTerra MS RP-18 (3.5 μm, 150 × 4.6 mm) chromatographic column (Waters, Milford, MA, USA) as the stationary phase. The mobile phase consisted of methanol, water, and 0.1% (v/v) formic acid and was degassed by the use of the built-in membrane degasser. The methanol gradient grade for HPLC was purchased from Merck (Merck, Darmstadt, Germany) and formic acid from Polish Reagents (Polish Reagents, Gliwice, Poland); double-distilled water was used. Then, 5 μL of methanolic solutions (0.1%; m/v) of selected samples were applied to the chromatographic column by the use of an autosampler Hitachi L-2200 (LaChrom Elite, Hitachi-Merck, Darmstadt, Germany). The analysis was performed with the flow rate of 0.7 mL min^−1 in isocratic mode using various concentrations of organic modifier (methanol) in binary polar mobile phases; percentages of methanol in water were 45–70% (%, v/v) and changed by 5% per step. Chromatograms were detected at 254 nm and the temperature of the column was 25 °C. All experiments were repeated in triplicate, and the final results were taken to be the arithmetic means. Dead time was measured by the use of uracil (Calbiochem. Merck, Darmstadt, Germany). Statistical and regression analyses were performed using Statistica (ver. 13.3 for Windows). The chromatographic lipophilicity parameters ( logkW ) for selected samples were obtained by the extrapolation of the retention parameter logk to pure water, according to Equation (1):(1) logk=logkw−S·ϕ; where logkW is the value of the retention factor of a substance in pure water, S is the slope of the regression curve, and ϕ is the concentration of the organic modifier. The values of logk were calculated based on the raw HPLC data using the formula (2):(2) logk=logtR−t0/t0; where tR is the retention time and t0 is the dead retention time (determined for uracil).
The chromatographic lipophilicity parameters (logkௐ ) for selected samples were ob‐ tained by the extrapolation of the retention parame te r logk to pure water, according to […]
where logkௐ is the value of the retention factor of a substance in pure water, S is the slope of the regression curve, and φ is the concentration of the organic modifier. The values of logk were ca lcula ted based on the raw HPLC data using the formula: […]
logk ൌ log ሺ௧ೃ ି ௧బ௧బ ሻ (2) where tோ is the retention time and t଴ is the dead retention time (determined for ura‐ cil). The goodness of fit of the equation (1) to the experimental data was classified accord‐ ing to Jaffe (Jaffe, H. H. A Reexamination of the Hammet Equation. Chem. Rev. 1953, 53, In our RP‐HPLC experiments, the goodness of fit of the equation to the experi‐ mental data are excellent in most ca ses (r > 0.99). The F statistic val ues are, in all cases, […]

[6] = 48 h incubation, average (SD) of three experiments
[7] = MOLT-4, 48 h incubation, average (SD) of three experiments

Row | logkw (Experimental) [5] | logkw (Table S2) [5] | SMILES | IC50 [1, 6] [µM] | IC50 [2, 6] [µM] | IC50 [3, 6] [µM] | IC50 [4, 7] [µM] | IC50 [1] [µM] | IC50 ([2]; 48 h) [µM] | IC50 ([3]; 48 h) [µM] | IC50 ([4]; MOLT-4, 48 h) [µM]
1 | – | – | CC12C(=O)C(C)(C(c3ccccc3)=C1c1ccccc1)C1C(=O)N(CC(O)CN3CCCCC3)C(=O)C12 (centres unmarked) [1f, 4-[2-hydroxy-3-(piperidin-1-yl)propyl]-1,7-dimethyl-8,9-diphenyl-4-azatricyclo[5.2.1.0^2,6]dec-8-ene-3,5,10-trione] | 18 | 21 | 55 | 40 | – | – | – | –
2 | 4.83 | 4.8345 | CC12C(=O)C(C)(C(c3ccccc3)=C1c1ccccc1)C1C(=O)N(CC(O)CN3CCOCC3)C(=O)C12 (centres unmarked) [1g, 4-[-2-hydroxy-3-(morpholin-4-yl)propyl]-1,7-dimethyl-8,9-diphenyl-4-azatricyclo [5.2.1.0^2,6]dec-8-ene-3,5,10-trione] | > 100 | – | > 100 | > 100 | – | – | – | –
3 | – | – | CCC12C(=O)C(CC)(C(c3ccccc3)=C1c1ccccc1)C1C(=O)N(CC(O)CNC(C)C)C(=O)C12 (centres unmarked) [Ie] | – | – | – | – | 8 | 3.5 | 10 | 15
4 | 5.09 | 5.0889 | CCN(CC)CCN1C(=O)C2C(C1=O)C1(CC)C(=O)C2(CC)C(c2ccccc2)=C1c1ccccc1 (centres unmarked) [Ib] | – | – | – | – | – | – | – | –
5 | – | – | CCCCN(CCCC)CC(O)CN1C(=O)C2C(C1=O)C1(CC)C(=O)C2(CC)C(c2ccccc2)=C1c1ccccc1 (centres unmarked) [2e, 4-[3-(dibutylamino)-2-hydroxypropyl]-1,7-diethyl-8,9-diphenyl-4-azatricyclo[5.2.1.0^2,6]dec-8-ene-3,5,10-trione] | 4.1 | 1.2 | 19 | 3.1 | – | – | – | –
6 | – | – | CN(C)CCN1C(=O)C2C(C1=O)C1(c3ccccc3)CC2(c2ccccc2)C(c2ccccc2)=C1c1ccccc1 (centres unmarked) [II] | 16 | 4 | 20 | 18 | – | – | – | –
7 | 5.05 | 5.0532 | CCC12C(=O)C(CC)(C(c3ccccc3)=C1c1ccccc1)C1C(=O)N(CCCN(C)C)C(=O)C12 (centres unmarked) [Id] | – | – | – | – | – | – | – | –
8 | – | – | CCCCN(CCCC)CC(O)CN1C(=O)C2C(C1=O)C1(C)C(=O)C2(C)C(c2ccccc2)=C1c1ccccc1 (centres unmarked) [1e, 4-[3-(dibutylamino)-2-hydroxypropyl]-1,7-dimethyl-8,9-diphenyl-4-azatricyclo [5.2.1.0^2,6]dec-8-ene-3,5,10-trione] | 5.8 | 30 | 3.2 | 8 | – | – | – | –
9 | 4.94 | 4.9430 | CCC12C(=O)C(CC)(C(c3ccccc3)=C1c1ccccc1)C1C(=O)N(CCN(C)C)C(=O)C12 (centres unmarked) [Ia] | – | – | – | – | – | – | – | –
10 | 6.31 | 6.3071 | CCNCC(O)CN1C(=O)C2C(C1=O)C1(c3ccccc3)CC2(c2ccccc2)C(c2ccccc2)=C1c1ccccc1 (centres unmarked) [3b, 4-[3-(ethylamino)-2-hydroxypropyl]-1,7,8,9-tetraphenyl-4-azatricyclo[5.2.1.0^2,6]dec-8-ene-3,5-dione] | > 100 | – | > 100 | > 100 | – | – | – | –
11 | – | – | CCCCN(CCCC)CC(O)CN1C(=O)C2C(C1=O)C1(c3ccccc3)CC2(c2ccccc2)C(c2ccccc2)=C1c1ccccc1 (centres unmarked) [3e, 4-[3-(dibutylamino)-2-hydroxypropyl]-1,7,8,9-tetraphenyl-4-azatricyclo[5.2.1.0^2,6]dec-8-ene-3,5-dione] | 6 | 7 | 40 | 5.4 | – | – | – | –
12 | – | – | CCC12C(=O)C(CC)(C(c3ccccc3)=C1c1ccccc1)C1C(=O)N(CCN3CCCCC3)C(=O)C12 (centres unmarked) [Ic] | 20 | 15 | 18 | 15 | – | – | – | –
13 | – | – | CC12C(=O)C(C)(C(c3ccccc3)=C1c1ccccc1)C1C(=O)N(CCN3CCOCC3)C(=O)C12 (centres unmarked) [1j, 4-[2-(morpholin-4-yl)ethy]-1,7-dimethyl-8,9-diphenyl-4-azatricyclo[5.2.1.0^2,6]dec-8-ene-3,5,10-trione] | > 100 | – | > 100 | > 100 | – | – | – | –
